Experiments:
[1] = Spacer leaving group cyclization release rate in pH 7.4 phosphate buffer (Example 39); conditions: 2.18 mM, 50 mM pH 7.4 phosphate buffer, 20° C.
[2] = Oral administration of hydrocodone prodrugs co-dosed with Compound 109 to rats (Example 46); conditions: co-dosed PO with KC-40 or KC-50 to rats
[3] = Oral administration of oxycodone prodrugs co-dosed with trypsin inhibitor Compound 109 to rats (Example 40); type: in vivo; conditions: co-dosed PO with KC-12 or KC-17 to rats
[4] = Pharmacokinetics following PO administration of Compound KC-55 to rats (Example 48)
trypsin = biological target: T1, trypsin (Bos taurus, UniProt P00760); experiment: In vitro trypsin-mediated cleavage of hydrocodone prodrugs (Example 44); type: biochemical, bovine; conditions: conditions as Example 39
T1 construct: purchased Sigma-Aldrich T8003; host or cells: bovine pancreas
T1 sequence (P00760 24-246): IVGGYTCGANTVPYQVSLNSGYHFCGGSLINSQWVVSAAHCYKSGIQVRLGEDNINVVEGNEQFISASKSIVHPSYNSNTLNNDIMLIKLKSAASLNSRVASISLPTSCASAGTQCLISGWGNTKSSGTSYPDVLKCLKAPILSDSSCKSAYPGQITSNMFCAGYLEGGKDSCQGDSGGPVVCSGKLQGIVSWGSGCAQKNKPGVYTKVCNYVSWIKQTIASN
Procedure: The reactions were conducted at 37° C. for 24 h. Samples were collected at specified time points, transferred into 0.5% formic acid in acetonitrile to stop trypsin activity, and stored at less than −70° C. until analysis by LC-MS/MS.

COc1ccc2c3c1O[C@H]1C(OC(=O)N4CCCCC4CN)=CC[C@@]4(O)[C@@H](C2)N(C)CC[C@]314 (single isomer, unassigned; peak a) [KC-11 peak A, N-(oxycodone-6-enol-carbonyl)piperidine-2-methylamine]
half-life (cyclization; compound disappearance) [1]: 1.30 ± 0.038 h

COc1ccc2c3c1O[C@H]1C(OC(=O)N4CCCCC4CN)=CC[C@@]4(O)[C@@H](C2)N(C)CC[C@]314 (single isomer, unassigned; peak b) [KC-11 peak B, N-(oxycodone-6-enol-carbonyl)piperidine-2-methylamine]
half-life (cyclization; compound disappearance) [1]: 0.876 ± 0.012 h

N=C(N)c1ccc2cc(OC(=O)c3ccc(N=C(N)N)cc3)ccc2c1 [Compound 109, 6-carbamimidoylnaphthalen-2-yl 4-(diaminomethyleneamino)benzoate]
effect of trypsin inhibitor on release of hydrocodone [2]: attenuate release of hydrocodone by prodrugs of the embodiments
effect of trypsin inhibitor on release of oxycodone [3]: attenuate release of oxycodone by prodrugs of the embodiments

COc1ccc2c3c1O[C@H]1C(OC(=O)N4CCC(C(=O)O)CC4CNC(=O)[C@H](CCCNC(=N)N)NC(=O)CNC(C)=O)=CC[C@@]4(O)[C@@H](C2)N(C)CC[C@]314 (stereo partly drawn) [Compound KC-55, N-(oxycodone-6-enol-carbonyl)-[(2-methylamino)-piperidine-4-carboxylate]-L-arginine-glycine-acetate]
release of oxycodone on oral administration ([4]; PO to rats): leads to release of oxycodone

COc1ccc2c3c1O[C@H]1C(=O)CC[C@@]4(O)[C@@H](C2)N(C)CC[C@]314 [Oxycodone, oxycodone, reference compound]
Cmax ([4]; male, Sprague Dawley, rat, plasma, po, 10 mg/kg): 14.7 ± 6.5 ng/mL

N-(hydrocodone-6-enol-carbonyl)-(2-methylamino)piperidine-4-carboxylate]-L-arginine-glycine-acetate [Compound KC-40]
HC formation rate (trypsin): 0.003 ± 0.00 μmol/h/BAEE U

Source: US20160002291A1, “Active Agent Prodrugs with Heterocyclic Linkers” (Signature Therapeutics, Inc., priority 2011, published 2016)
